These results are taken from patent US20050208101A1, “Coating composition for an implantable medical device and method for coating such a device” (priority 2002, published 2005).

This assay concerns Human embryonic fibroblasts. Kind of assay: Cell proliferation test with extracts of Elastollan films (Giemsa stain, optical density 620 nm). The format is cell-based. Conditions: extracts obtained in Eagle's medium 37° C. 3 h; cells incubated 72 h; mitomycin C 20 μg/ml for 2 h. As to the method:
Elastollan films containing 0.1 and 0.5% by weight shikonin, and Elastollan films without shikonin, were tested.
Human embryonic fibroblasts were employed in these experiments. The cells were cultivated in Eagle's medium with the addition of 10% fetal calf serum and passaged twice a week using a trypsin-EDTA solution. The cells present after the 14th passage were used for the tests.
Mitomycin C dissolved in culture medium in a concentration of 20 μg/ml was used as […] control.
Extracts from Elastollan films without shikonin, Elastollan films with 0.1% by weight and 0.5% by weight shikonin (based on polyurethane), and shikonin alone, were tested.
Extracts were obtained by incubating dishes covered by the polymers to be tested (i.e. Elastollan films without or with shikonin) with Eagle's medium at 37° C. for 3 h. Undissolved solids were removed by filtering. The control with shikonin only (in the culture medium) was cultivated under the same conditions. […]
The stain retained by the cells was eluted with a phosphate buffer/alcohol mixture (1:1) at room temperature for 15 min. The optical density of the resulting solutions was determined by a spectrophotometer with a wavelength of 620 nm.

With `CO[C@@]12[C@H](COC(N)=O)C3=C(C(=O)C(C)=C(N)C3=O)N1C[C@@H]1N[C@@H]12` [mitomycin C, Mitomycin C], the “cell growth of fibroblasts after exposure to the tested extract” value is “no cell growth was observed”.
